Patent US7998961B2, “Hydantoin derivatives useful as antibacterial agents” (Schering Corporation, priority 2006, dated 2011)
Read-outs that look alike come from different tables or passages of the source.

Molecular target: T1, LpxC enzyme (Escherichia coli, UniProt P0A725)
T1 sequence (P0A725 1-305): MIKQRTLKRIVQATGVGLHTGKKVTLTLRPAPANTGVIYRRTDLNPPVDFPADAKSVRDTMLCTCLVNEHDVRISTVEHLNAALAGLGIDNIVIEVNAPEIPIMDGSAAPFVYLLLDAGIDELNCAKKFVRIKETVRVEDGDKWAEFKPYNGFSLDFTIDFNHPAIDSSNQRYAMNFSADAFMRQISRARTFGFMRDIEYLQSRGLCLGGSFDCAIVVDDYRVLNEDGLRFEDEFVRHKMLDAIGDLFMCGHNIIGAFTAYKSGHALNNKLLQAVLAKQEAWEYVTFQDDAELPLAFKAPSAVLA
Assay: standard LpxC enzyme assay (RapidFire high-throughput mass spectrometry)
Type: biochemical
Settings: for inhibition at 25 µg/mL: compound at 25 ug/mL; for IC50: LpxC inhibitory activity
Experimental: The standard LpxC assay consists of 0.2 nM LpxC enzyme, 1.0 μM UDP-3-O—(R-3-hydroxymyristoyl)-N-acetylglucosamine, and test compound, in assay buffer and 2% DMSO. Assay buffer is comprised of 25 mM HEPES, pH 7.3, 150 mM NaCl, 2.0 mM DTT, and 0.01% BSA. The enzyme reaction is carried out in a 96-well assay plate, in a final volume of 102 μL. Solutions of test compounds are prepared in 100% DMSO. Reaction additions, in order, are (1) 2.0 μL compound solution, (2) 80 μL of assay buffer, (3) 10 μL of 10 μM UDP-3-O—(R-3-hydroxymyristoyl)-N-acetylglucosamine (in assay buffer) and, (4) 10 μL of LpxC enzyme (20 nM in assay buffer) to initiate the reaction. In positive control reactions, addition (1) has 2.0 μL of 100% DMSO (without compound); these reactions are used as the total signal (TSB) value. Reactions are incubated at room temperature for 60 minutes when 10 μL of 1 N HCl is added to stop the reaction. The plate is shaken by hand for 10 seconds to ensure complete quenching. Assay plates are sealed with foil tape, and stored at −80° C. for 24-48 hr prior to analysis.
The concentrations of substrate and product in the reaction mixtures are determined with BioTrove's proprietary RapidFire™ high-throughput mass spectrometry (HTMS). Assay mixtures are partially purified with reverse phase chromatography, where they are washed with water containing 5 mM ammonium formate and eluted onto the mass spectrometer in 80% acetonitrile, 20% water, and 5 mM ammonium formate. The mass spectrometry peak areas of the substrate and product are measured to determine the concentration of these analytes. The assay signal is the percentage of substrate that is converted to product. Percent inhibition, % I, in test samples is determined from the following equation: […]

[1] = read-out: LpxC enzyme assay rating (% inhibition at indicated concentrations of 100 and 25 ug/mL): 25
[2] = compound at 100 ug/mL, read-out: LpxC enzyme assay rating (% inhibition at indicated concentrations of 100 and 25 ug/mL): 100
[3] = read-out: Numerical LpxC inhibitory activity (% inhibition): 100

Row | SMILES | IC50 (read-out: IC50 rating) [nM] | other results
1 | CC1(CC(=O)Nc2ccccc2C#Cc2ccccc2)NC(=O)NC1=O (centres unmarked) [Compound 32] | – | inhibition at 25 µg/mL [1]: < 10%
2 | CC1(CC(=O)Nc2ccc(C#Cc3ccccc3)cc2)NC(=O)NC1=O (centres unmarked) [Compound 33] | > 5000 | –
3 | CC1(CC(=O)NCCc2ccc(C#Cc3ccccc3)cc2)NC(=O)NC1=O (centres unmarked) [Compound 34] | – | inhibition at 25 µg/mL [1]: 10 to 30%; inhibition at 25 µg/mL (read-out: Numerical LpxC inhibitory activity (% inhibition): 25): 30%
4 | CC1(CC(=O)NCCc2cccc(C#Cc3ccccc3)c2)NC(=O)NC1=O (centres unmarked) [Compound 35] | – | inhibition at 25 µg/mL [1]: < 10%
5 | CC1(CC(=O)N2CCC(c3ccc(C#Cc4ccccc4)cc3)CC2)NC(=O)NC1=O (centres unmarked) [Compound 36] | 250 to 1000 | IC50 (read-out: IC50 values): 600 nM
6 | CC1(CC(=O)N2CCCC(c3ccc(C#Cc4ccccc4)cc3)C2)NC(=O)NC1=O (centres unmarked) [Compound 37] | 250 to 1000 | –
7 | CC1(CC(=O)N2CCC(O)(c3ccc(C#Cc4ccccc4)cc3)CC2)NC(=O)NC1=O (centres unmarked) [Compound 38] | 1000 to 5000 | –
8 | CC1(CC(=O)N2CCN(c3ccc(C#Cc4ccccc4)cc3)CC2)NC(=O)NC1=O (centres unmarked) [Compound 39] | 250 to 1000 | IC50 (read-out: IC50 values): 500 nM
9 | C[C@@H](NC(=O)CC1(C)NC(=O)NC1=O)c1ccc(C#Cc2ccccc2)cc1 (some centres unmarked) [Compound 40] | > 5000 | –
10 | O=C1NC(=O)C(CC(=O)N2CCC(c3ccc(C#Cc4ccccc4)cc3)CC2)N1 (centres unmarked) [Compound 41] | – | inhibition at 100 µg/mL [2]: > 30%; inhibition at 100 µg/mL [3]: 60%
11 | O=C1NC(=O)C(CC(=O)N2CCN(c3ccc(C#Cc4ccccc4)cc3)CC2)N1 (centres unmarked) [Compound 42] | – | inhibition at 100 µg/mL [2]: > 30%
12 | CCC1(CC(=O)N2CCC(c3ccc(C#Cc4ccccc4)cc3)CC2)NC(=O)NC1=O (centres unmarked) [Compound 43] | 250 to 1000 | IC50 (read-out: IC50 values): 700 nM
13 | O=C1NC(=O)C(CC(=O)N2CCC(c3ccc(Br)cc3)CC2)N1 (centres unmarked) [Compound 45] | – | inhibition at 100 µg/mL [2]: > 30%; inhibition at 100 µg/mL [3]: 68%
14 | CC1(CC(=O)N2CCC(c3ccc(Br)cc3)CC2)NC(=O)NC1=O (centres unmarked) [Compound 46] | – | inhibition at 100 µg/mL [2]: > 30%
15 | CCC1(CC(=O)N2CCC(c3ccc(Br)cc3)CC2)NC(=O)NC1=O (centres unmarked) [Compound 47] | – | inhibition at 100 µg/mL [2]: > 30%
16 | C[C@@H](O)[C@H](NC(=O)c1ccc(C#Cc2ccccc2)cc1)C1NC(=O)NC1=O (some centres unmarked) [Compound 64] | > 5000 | –
17 | C[C@H](O)[C@@H](NC(=O)c1ccc(C#Cc2ccccc2)cc1)C1NC(=O)NC1=O (some centres unmarked) [Compound 65] | > 5000 | –
18 | CC1(CNC(=O)c2ccc(C#Cc3ccccc3)cc2)NC(=O)NC1=O (centres unmarked) [Compound 66] | > 5000 | –
19 | C#Cc1ccc(C2CCN(C(=O)CC3(C)NC(=O)NC3=O)CC2)cc1 (centres unmarked) [Compound 75] | > 5000 | –
20 | CCc1ccc(C2CCN(C(=O)CC3(C)NC(=O)NC3=O)CC2)cc1 (centres unmarked) [Compound 76] | > 5000 | –
21 | CC1(CC(=O)N2CCC(c3ccc(CCN4CCOCC4)cc3)CC2)NC(=O)NC1=O (centres unmarked) [Compound 77] | > 5000 | –
22 | CC1(CC(=O)N2CCC(c3ccc(-c4ccccc4)cc3)CC2)NC(=O)NC1=O (centres unmarked) [Compound 78] | > 5000 | –
23 | CC1(CC(=O)N2CCC(c3ccc(-c4ccncc4)cc3)CC2)NC(=O)NC1=O (centres unmarked) [Compound 79] | > 5000 | –
